Assays:
corn = assay: Test B pre/postemergence corn; assay type: in vivo, Zea mays
Outline: (§1)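 Test chemicals in a non-phytotoxic solvent mixture with surfactant were sprayed preemergence onto planted seeds and postemergence onto plants 2 to 18 cm tall (1- to 4-leaf stage). After twelve to sixteen days in a greenhouse, injury was visually rated against untreated controls from 0 (no effect) to 10 (complete control).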

rice = assay: Test B flood test rice; assay type: in vivo, Oryza sativa
Outline: (§2)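 Read-out is a visual response score from 0 (no effect) to 10 (complete control), assigned by comparison with untreated controls. Treatment was applied at the 2-leaf stage, and plants stayed in the greenhouse for twelve to sixteen days before scoring.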

surinam grass = assay: Test B pre/postemergence surinam grass; assay type: in vivo, Brachiaria decumbens
Outline: as §1

pigweed = assay: Test B pre/postemergence pigweed; assay type: in vivo, Amaranthus retroflexus
Outline: as §1

bedstraw = assay: Test B pre/postemergence bedstraw; assay type: in vivo, Galium aparine
Outline: as §1

cocklebur = assay: Test B pre/postemergence cocklebur; assay type: in vivo, Xanthium strumarium
Outline: as §1

wheat = assay: Test B pre/postemergence wheat; assay type: in vivo, Triticum aestivum
Outline: as §1

crabgrass = assay: Test B pre/postemergence crabgrass; assay type: in vivo, Digitaria sanguinalis
Outline: as §1

wild oat = assay: Test B pre/postemergence wild oat; assay type: in vivo, Avena fatua
Outline: as §1

purple nutsedge = assay: Test B pre/postemergence purple nutsedge; assay type: in vivo, Cyperus rotundus
Outline: as §1

sugar beet = assay: Test B pre/postemergence sugar beet; assay type: in vivo, Beta vulgaris
Outline: as §1

rape = assay: Test B pre/postemergence rape; assay type: in vivo, Brassica napus
Outline: as §1

morningglory = assay: Test B pre/postemergence morningglory; assay type: in vivo, Ipomoea hederacea
Outline: as §1

giant foxtail = assay: Test B pre/postemergence giant foxtail; assay type: in vivo, Setaria faberii
Outline: as §1

bamyardgrass = assay: Test B flood test barnyardgrass; assay type: in vivo, Echinochloa crus-galli
Outline: as §2

blackgrass = assay: Test B pre/postemergence blackgrass; assay type: in vivo, Alopecurus myosuroides
Outline: as §1

[1] = Postemergence, Rate 62 g/ha, scale 0 to 10, 0 is no effect, 10 is complete control
[2] = Postemergence, Rate 250 g/ha, scale 0 to 10, 0 no effect, 10 complete control
[3] = Preemergence, Rate 62 g/ha, scale 0 to 10, 0 is no effect, 10 is complete control
[4] = Preemergence, Rate 125 g/ha, scale 0 to 10 (0 no effect, 10 complete control)
[5] = Preemergence, Rate 250 g/ha, scale of 0 to 10 where 0 is no effect and 10 is complete control
[6] = Preemergence, Rate 500 g/ha, scale 0 (no effect) to 10 (complete control)
[7] = Rate 125 g/ha, Postemergence, scale 0 to 10, 0 no effect, 10 complete control
[8] = Rate 500 g/ha, Postemergence, 0 to 10 scale (0 no effect, 10 complete control)
[9] = Rate 125 g/ha, Postemergence section (flood test species), scale 0 to 10, 0 no effect, 10 complete control
[10] = Rate 500 g/ha, Postemergence section of Table B, 0 to 10 scale (0 no effect, 10 complete control)
[11] = flood test, listed under Postemergence, Rate 250 g/ha, scale 0 to 10, 0 no effect, 10 complete control

CC(C)N(C(=O)n1oc(=O)n(-c2cc(Cl)ccc2Cl)c1=O)c1ccc(F)cc1 [Compound 16]
Corn plant response rating (corn; [1]): 0
Corn plant response rating (corn; [2]): 0
Plant response rating, Corn (corn; [3]): 0
Plant response rating, Corn (corn; [4]): 0
Plant response rating, Corn (corn; [5]): 0
Corn plant response rating (corn; [6]): 0
Corn plant response rating (corn; [7]): 0
Corn plant response rating (corn; [8]): 0
Rice plant response rating (rice; [1]): 0
Rice plant response rating (rice; [9]): 0
Rice plant response rating (rice; [10]): 0
Rice plant response rating (rice; [11]): 0
B. signalgrass plant response rating (surinam grass; [1]): 0
B. signalgrass plant response rating (surinam grass; [2]): 0
Plant response rating, B. signalgrass (surinam grass; [3]): 0
Plant response rating, B. signalgrass (surinam grass; [4]): 0
Plant response rating, B. signalgrass (surinam grass; [5]): 0
B. signalgrass plant response rating (surinam grass; [6]): 0
B. signalgrass plant response rating (surinam grass; [7]): 0
B. signalgrass plant response rating (surinam grass; [8]): 0
Redroot pigweed plant response rating (pigweed; [1]): 0
Redroot pigweed plant response rating (pigweed; [2]): 0
Plant response rating, Redroot pigweed (pigweed; [3]): 0
Plant response rating, Redroot pigweed (pigweed; [4]): 0
Plant response rating, Redroot pigweed (pigweed; [5]): 0
Redroot pigweed plant response rating (pigweed; [6]): 0
Redroot pigweed plant response rating (pigweed; [7]): 0
Redroot pigweed plant response rating (pigweed; [8]): 0
Bedstraw plant response rating (bedstraw; [1]): 0
Bedstraw plant response rating (bedstraw; [2]): 0
Plant response rating, Bedstraw (bedstraw; [3]): 0
Plant response rating, Bedstraw (bedstraw; [4]): 0
Plant response rating, Bedstraw (bedstraw; [5]): 0
Bedstraw plant response rating (bedstraw; [6]): 0
Bedstraw plant response rating (bedstraw; [7]): 0
Bedstraw plant response rating (bedstraw; [8]): 0
Cocklebur plant response rating (cocklebur; [1]): 0
Cocklebur plant response rating (cocklebur; [2]): 0
Plant response rating, Cocklebur (cocklebur; [3]): 0
Plant response rating, Cocklebur (cocklebur; [4]): 0
Plant response rating, Cocklebur (cocklebur; [5]): 0
Cocklebur plant response rating (cocklebur; [6]): 0
Cocklebur plant response rating (cocklebur; [7]): 0
Cocklebur plant response rating (cocklebur; [8]): 0
Wheat plant response rating (wheat; [1]): 0
Wheat plant response rating (wheat; [2]): 0
Plant response rating, Wheat (wheat; [3]): 0
Plant response rating, Wheat (wheat; [4]): 0
Plant response rating, Wheat (wheat; [5]): 0
Wheat plant response rating (wheat; [6]): 0
Wheat plant response rating (wheat; [7]): 0
Crabgrass plant response rating (crabgrass; [1]): 0
Crabgrass plant response rating (crabgrass; [2]): 0
Plant response rating, Crabgrass (crabgrass; [3]): 0
Plant response rating, Crabgrass (crabgrass; [4]): 2
Plant response rating, Crabgrass (crabgrass; [5]): 2
Crabgrass plant response rating (crabgrass; [6]): 2
Crabgrass plant response rating (crabgrass; [7]): 0
Crabgrass plant response rating (crabgrass; [8]): 0
Wild oats plant response rating (wild oat; [1]): 0
Wild oats plant response rating (wild oat; [2]): 0
Plant response rating, Wild oats (wild oat; [4]): 0
Plant response rating, Wild oats (wild oat; [5]): 0
Wild oats plant response rating (wild oat; [6]): 0
Wild oats plant response rating (wild oat; [7]): 0
Nutsedge plant response rating (purple nutsedge; [1]): 0
Nutsedge plant response rating (purple nutsedge; [2]): 0
Plant response rating, Nutsedge (purple nutsedge; [3]): 0
Plant response rating, Nutsedge (purple nutsedge; [4]): 0
Plant response rating, Nutsedge (purple nutsedge; [5]): 0
Nutsedge plant response rating (purple nutsedge; [6]): 0
Nutsedge plant response rating (purple nutsedge; [7]): 0
Nutsedge plant response rating (purple nutsedge; [8]): 0
Sugarbeets plant response rating (sugar beet; [1]): 0
Sugarbeets plant response rating (sugar beet; [2]): 0
Plant response rating, Sugarbeets (sugar beet; [3]): 0
Plant response rating, Sugarbeets (sugar beet; [4]): 0
Plant response rating, Sugarbeets (sugar beet; [5]): 0
Sugarbeets plant response rating (sugar beet; [6]): 0
Sugarbeets plant response rating (sugar beet; [7]): 0
Rape plant response rating (rape; [1]): 0
Rape plant response rating (rape; [2]): 0
Plant response rating, Rape (rape; [3]): 0
Plant response rating, Rape (rape; [4]): 0
Plant response rating, Rape (rape; [5]): 0
Rape plant response rating (rape; [6]): 0
Rape plant response rating (rape; [7]): 0
Rape plant response rating (rape; [8]): 0
Morningglory plant response rating (morningglory; [1]): 1
Morningglory plant response rating (morningglory; [2]): 1
Plant response rating, Morningglory (morningglory; [3]): 0
Plant response rating, Morningglory (morningglory; [4]): 0
Plant response rating, Morningglory (morningglory; [5]): 0
Morningglory plant response rating (morningglory; [6]): 0
Morningglory plant response rating (morningglory; [7]): 1
Morningglory plant response rating (morningglory; [8]): 3
Giant foxtail plant response rating (giant foxtail; [1]): 0
Giant foxtail plant response rating (giant foxtail; [2]): 0
Plant response rating, Giant foxtail (giant foxtail; [3]): 0
Plant response rating, Giant foxtail (giant foxtail; [4]): 2
Plant response rating, Giant foxtail (giant foxtail; [5]): 3
Giant foxtail plant response rating (giant foxtail; [6]): 8
Giant foxtail plant response rating (giant foxtail; [7]): 0
Giant foxtail plant response rating (giant foxtail; [8]): 3
Barnyardgrass plant response rating (bamyardgrass; [1]): 0
Barnyardgrass plant response rating (bamyardgrass; [9]): 0
Barnyardgrass plant response rating (bamyardgrass; [10]): 0
Barnyardgrass plant response rating (bamyardgrass; [11]): 0
Blackgrass plant response rating (blackgrass; [1]): 0
Blackgrass plant response rating (blackgrass; [2]): 0
Plant response rating, Blackgrass (blackgrass; [3]): 0
Plant response rating, Blackgrass (blackgrass; [4]): 0
Plant response rating, Blackgrass (blackgrass; [5]): 0
Blackgrass plant response rating (blackgrass; [6]): 0
Blackgrass plant response rating (blackgrass; [7]): 0
Blackgrass plant response rating (blackgrass; [8]): 2

Source: patent publication US6737383B1, “Herbicidal oxadiazolidines” (priority 1999, dated 2004)
